Test systems include ACHN; KM-20L2; DLD-1; SK-MEL-5; RPMI-8226; XF498; MOLT-4; NCI-H460; SNB-78; A498; HCT-15; LXFL 529; U-251; NCI-H226.
Test in all cases: NCI tumour cell line growth inhibition, 48 h

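Five concentrations, 48 hours, 96-well plates. Here, GI50 denotes the concentration required for 50% inhibition of growth.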 Calls of active or inactive are those of the source. Cut-off read from the data, not from the text of the source: active = GI50 up to about 1.1 µM and inactive = higher.

On to `COc1ccc(N2C(=O)[C@@H]3[C@H](C2=O)c2[nH]c4ccccc4c2C2CCC(C(C)(C)C)C[C@@H]23)cc1` (stereo partly drawn), for which the GI50 in the assay with ACHN is 24.3 µM (inactive); in the assay on KM-20L2, 61.9 µM (inactive); with DLD-1 it was 37.7 µM (inactive); in the assay on SK-MEL-5 it was 41.2 µM (inactive); in the assay on RPMI-8226 it was 22.4 µM (inactive); with XF498, 44.8 µM (inactive). The GI50 in the assay on MOLT-4 is 14.4 µM (inactive); in the assay with NCI-H460, 25.2 µM (inactive); in the assay on SNB-78, 23.7 µM (inactive); in the assay with A498, 26 µM (inactive); with HCT-15 it was more than 90.4 µM; in the assay on LXFL 529, 39.4 µM (inactive). In addition, the figures for the GI50 in the assay on U-251 and in the assay on NCI-H226 were 20.9 µM (inactive) and 22.3 µM (inactive), respectively.

For `O=[N+]([O-])c1ccc(C(Cl)C(Cl)c2ccc(C(Cl)C(Cl)c3ccc([N+](=O)[O-])cc3[N+](=O)[O-])cc2)c([N+](=O)[O-])c1` (stereo not drawn), the GI50 in the assay on ACHN was 2.05 µM (inactive); with KM-20L2, 0.0638 µM (active); with DLD-1, 1.78 µM (inactive); with SK-MEL-5, 0.991 µM (active); with RPMI-8226, 0.8 µM (active); with XF498 it was 0.184 µM (active). Besides, the GI50 in the assay with MOLT-4 is 1.61 µM (inactive); in the assay with NCI-H460, 0.957 µM (active); in the assay on SNB-78 it was 3.44 µM (inactive); with A498, 2.9 µM (inactive); in the assay with HCT-15, 1.19 µM; with LXFL 529, 0.92 µM (active). Also, the GI50 is 1.26 µM (inactive) in the assay with U-251 and 2.29 µM (inactive) in the assay with NCI-H226.

For the molecule `COc1cc(CN[C@H]2CCc3cc(OC)c(OC)c(OC)c3-c3ccc(SC)c(=O)cc32)cc(OC)c1`, the GI50 is 0.0439 µM (active) in the assay on ACHN; 0.0206 µM (active) with KM-20L2; 0.0411 µM (active) in the assay with DLD-1; 0.0336 µM (active) in the assay on SK-MEL-5; 0.0324 µM (active) in the assay on RPMI-8226; 0.0596 µM (active) in the assay with XF498. Also, the GI50 is 0.452 µM (active) with MOLT-4; 0.0361 µM (active) in the assay on NCI-H460; 0.0538 µM (active) with SNB-78; 0.0306 µM (active) in the assay on A498; 0.0483 µM in the assay with HCT-15; 0.0494 µM (active) with LXFL 529. In addition, the values for the GI50 with U-251 and in the assay with NCI-H226 were 0.0324 µM (active) and 0.0318 µM (active), respectively.

Turning to `CC(C)[C@H](CCl)NC(=O)c1cccc(C(=O)N[C@H](CCl)C(C)C)n1` (stereo in doubt), the GI50 in the assay on ACHN, in the assay with KM-20L2, with DLD-1, in the assay with SK-MEL-5, in the assay on RPMI-8226 and with XF498 was > 100 µM (inactive) each time. Also, the GI50 was > 100 µM (inactive) in the assay on MOLT-4; > 100 µM (inactive) with NCI-H460; > 100 µM (inactive) in the assay with SNB-78; 78.7 µM (inactive) in the assay on A498; more than 100 µM in the assay on HCT-15; > 100 µM (inactive) in the assay on LXFL 529. The GI50 in the assay with U-251 and with NCI-H226 was > 100 µM (inactive) in each case.

For the molecule `Clc1cc2ns[s+]c2cc1Cl`, the GI50 is 12.4 µM (inactive) in the assay on ACHN; 14.3 µM (inactive) with KM-20L2; 13.1 µM (inactive) with DLD-1; > 37 µM (inactive) in the assay on SK-MEL-5; 31 µM (inactive) in the assay on RPMI-8226; > 83.6 µM (inactive) in the assay with XF498. Moreover, the GI50 with MOLT-4 is 29.9 µM (inactive); in the assay on NCI-H460, 47.8 µM (inactive); in the assay on SNB-78, > 100 µM (inactive); in the assay on A498, > 100 µM (inactive); in the assay with HCT-15, 4.34 µM; in the assay with LXFL 529, 4.72 µM (inactive). Besides, the GI50 with U-251 and in the assay on NCI-H226 was > 100 µM (inactive) each time.

For the molecule `COC(=O)CCC(NC(=S)N/N=C(\C)c1nccs1)C(=O)OC` (stereo not drawn), the GI50 in the assay on ACHN is 47.6 µM (inactive); in the assay with KM-20L2 it was 31.8 µM (inactive); with DLD-1 it was 40.6 µM (inactive); with SK-MEL-5, 36.4 µM (inactive); with RPMI-8226, 3.23 µM (inactive); in the assay with XF498, > 100 µM (inactive). The GI50 with MOLT-4 was > 10 µM (inactive); in the assay with NCI-H460, 53.3 µM (inactive); in the assay on SNB-78, > 100 µM (inactive); in the assay on A498, > 100 µM (inactive); in the assay on HCT-15, 46.3 µM; with LXFL 529, 60.4 µM (inactive). Also, the GI50 in the assay on U-251 is 78.2 µM (inactive); in the assay with NCI-H226, 53.7 µM (inactive).

Take `CC(CN1CCN(CC(C)Nc2ccnc3cc(Cl)ccc23)CC1)Nc1ccnc2cc(Cl)ccc12` (stereo not drawn): the GI50 was 28.8 µM (inactive) in the assay with ACHN; 13.4 µM (inactive) in the assay on KM-20L2; 16.9 µM (inactive) in the assay on DLD-1; 17.5 µM (inactive) with SK-MEL-5; 9.79 µM (inactive) in the assay with RPMI-8226; 23.3 µM (inactive) with XF498. Besides, the GI50 with MOLT-4 was 9.38 µM (inactive); in the assay with NCI-H460, 14.7 µM (inactive); in the assay with SNB-78, 21.1 µM (inactive); with A498 it was 18 µM (inactive); in the assay with HCT-15, 15.7 µM; in the assay with LXFL 529 it was 16.6 µM (inactive). In addition, the GI50 in the assay with U-251 was 18.5 µM (inactive); in the assay with NCI-H226, 28.4 µM (inactive).
